This is an account of results in PubChem BioAssay (NCI).

Where “and” joins values, the source holds several entries; their conditions need not be identical. Equal values may be shown once.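 Step 1: Grow cells in 96-well plates. Step 2: Expose to compound for 48 hours at 5 concentrations. Step 3: Interpolate endpoints linearly; if unreached, use highest concentration. Definition used: TGI = concentration required for complete inhibition of growth.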

What all share (assay): NCI anticancer screen, dose series, 48 h
The subject of test [1] is 786-0 renal.
Test [2] deals with CAKI-1 renal.
Test [3] relates to CCRF-CEM leukemia.
For test [4], the system named is HCT-15 colon.
Test [5] deals with HOP-62 NSCLC.
Test [6] has as its system MOLT-4 leukemia.
In test [7] the test system is RPMI-8226 leukemia.
For test [8], the system named is SR leukemia.
The subject of test [9] is UACC-257 melanoma.
For test [10], the system named is UACC-62 melanoma.
Test [11] has as its system OVCAR-5 ovarian.
Test [12] relates to HOP-92 NSCLC.

Turning to `O=C(/C=C/c1cccc(Br)c1)c1cccs1`, the TGI in [1] is 31.4 µM; in test [2], 32.6 µM; in test [3] it was 23.6 µM; in test [4], 35.8 µM; in [5], 73.8 µM; in test [6], 53.2 µM. The TGI in [7] was 5.42 µM; in test [8] it was more than 100 µM; in [9], 33 µM; in test [10], 32.7 µM.

`NC(=O)c1nnc2cc(F)ccc2c1N`: the TGI in test [1], in test [2], in [3], in [4], in [5] and in test [6] was more than 100 µM in each case. The TGI in [11], in test [7], in test [8], in test [9] and in test [10] was more than 100 µM throughout.

For the molecule `C1CSCCCSCCSCCCSC1`, the TGI in [1], in [2], in [4], in [5], in [12] and in test [6] was more than 100 µM in each case. Further, the TGI in [11], in test [7], in test [9] and in test [10] was more than 100 µM each time.

As to `O=c1c(SSc2coc3cc(F)ccc3c2=O)coc2cc(F)ccc12`, the TGI is 21.6 µM in test [1]; 43.3 µM in [2]; 37.9 µM in [3]; 33.3 µM in test [4]; more than 100 µM in test [5]; 69.6 µM in test [6]. Also, the TGI in [11] was more than 100 µM; in test [7], more than 100 µM; in [8], more than 100 µM; in [9], 77 µM; in test [10], 36.1 µM.

As for `CCCCCCCCCCCCCCCCCCNc1ccn(C2OC(COP(=O)(O)OCC3CCC(n4cnc5c(=O)[nH]cnc54)O3)C(O)C2O)c(=O)n1` (stereo unspecified), the TGI in [1], in [2], in test [3], in test [4], in test [5] and in test [12] was more than 100 µM each time. The TGI in test [6], in test [11], in test [9] and in test [10] was more than 100 µM in each case.

In the case of `COC(=O)c1ccccc1C#CC#Cc1ccccc1C(=O)OC`, the TGI in test [1], in test [2], in test [3], in test [4], in [5] and in test [6] was more than 10 µM throughout. The TGI in test [11], in test [7], in [8], in test [9] and in test [10] was more than 10 µM in each case.

In the case of `O=C1NC(N/N=C\C(O)C(O)C(O)CO)=N/C1=C/c1ccc(Cl)cc1` (stereo unspecified), the TGI is more than 100 µM in test [1]; more than 100 µM in test [2]; more than 100 µM in [3]; 52.8 µM in [4]; more than 100 µM in test [5]; more than 100 µM in [12]. Further, the TGI in [6] was 55.6 µM and 61.4 µM; in [11], more than 100 µM; in [7] it was > 100 µM and 94.3 µM; in test [9], more than 100 µM.

`Cc1cc(-c2[nH]c(C(=O)O)cc2I)on1`: the TGI in test [1], in test [2], in [4], in test [5], in [12] and in test [6] was more than 100 µM each time. For the same molecule, the TGI in test [11], in test [7], in [9] and in test [10] was more than 100 µM in each case.

Turning to `Cc1ccc(S(=O)(=O)NC(=O)NC23CC4CC(CC(F)(C4)C2)C3)cc1`, the TGI in test [1], in [3], in [5], in test [12], in [6] and in test [11] was more than 100 µM each time. The TGI in test [7], in [9] and in [10] was more than 100 µM throughout.

As to `CC(C)CCC[C@@H](C)[C@H]1CCC2C3CC=C4C[C@@H](Oc5c6ccccc6nc6ccccc56)CCC4C3CCC21` (stereo partly specified), the TGI in test [1], in test [2], in [3], in test [4], in test [5] and in [12] was more than 50 µM throughout. Besides, the TGI in test [11], in test [9] and in test [10] was more than 50 µM throughout.

In the case of `C=CCOCn1cnc2c(N)ncnc21`, the TGI in [1], in [2], in test [3], in test [4], in [5] and in test [6] was more than 100 µM in each case. Further, the TGI in test [11], in test [7], in test [8], in test [9] and in test [10] was more than 100 µM each time.

Consider `CCCCc1c(C(=O)OC(C)(C)C)cc(C#Cc2cc(C(=O)OC(C)(C)C)c(CCCC)c(C(=O)OC(C)(C)C)c2)cc1C(=O)OC(C)(C)C`, for which the TGI in test [1], in [2], in [4], in test [5], in test [12] and in test [11] was more than 100 µM in each case. Further, the TGI in test [7], in [9] and in [10] was more than 100 µM each time.

For `NC(=O)N/N=C/C(/C=N/NC(N)=O)[N+](=O)[O-]`, the TGI in test [1], in test [2], in test [3], in test [5], in test [12] and in test [11] was more than 100 µM throughout. Further, the TGI in test [7], in test [9] and in test [10] was more than 100 µM in each case.

With `O=c1[nH]nc(-c2ccccc2)n1/N=C/c1c[nH]c2ccccc12`, the TGI in [1], in test [2], in [3], in [4], in test [5] and in test [12] was more than 100 µM in each case. Moreover, the TGI in test [6], in test [11], in test [7], in [9] and in [10] was more than 100 µM throughout.
